Measured values: US9610279B2, “Method for induction of a heat shock protein, anti-stress or regulation of an autonomic nerve” (AMINO UP CHEMICAL CO., LTD., priority 2011, dated 2017)

Tested on: HSP70
Assay: HSP70 protein expression inducing activity in HeLa cells (ELISA)
Type: cell-based, human
Conditions: final concentration 1 mg/mL, 24 hours
Experimental: The HSP70 inducing activity of the samples 1, 3, and 4 which were the same ones as used in Example 4 was evaluated by measuring an HSP70 protein expression level. In the same manner as described in Example 4, HeLa cells that had been suspended in DMEM (added with 10% FBS) were seeded in a 12-well plate (100,000 cells/mL/well). […] A part of the cells were then scraped off with a cell scraper, collected into a 1.5 mL sample tube, and subjected to HSP70 protein quantification and total protein quantification. The quantification of HSP70 protein was carried out using HSP70 ELISA kit (product name) (manufactured by Enzo); and the quantification of total protein was carried out using Micro BCA Protein Assay Reagent kit (product name) (manufactured by PIERCE Biotechnology). With regard to the remaining cells, an effect on cell proliferation was evaluated by 3-(4,5-dimethyl […])-2,5-diphenyltetrazalium bromide (MTT) method. […]

O=Cc1ccc(CO)o1 [sample 1, 5-Hydroxymethyl-2-furaldehyde]
increased HSP70 protein expression as compared with the control: about 1.3 fold
